By IC50 is commonly meant the midpoint of a concentration-inhibition curve.

In one test the target is T1, RAC-alpha serine/threonine-protein kinase [139-480,S378A,S381A,T450D,S473D] (Homo sapiens, UniProt P31749, S378A/S381A/S473D/T450D).
T1 construct: 139-480
T1 sequence (P31749 139-480 S378A/S381A/T450D/S473D): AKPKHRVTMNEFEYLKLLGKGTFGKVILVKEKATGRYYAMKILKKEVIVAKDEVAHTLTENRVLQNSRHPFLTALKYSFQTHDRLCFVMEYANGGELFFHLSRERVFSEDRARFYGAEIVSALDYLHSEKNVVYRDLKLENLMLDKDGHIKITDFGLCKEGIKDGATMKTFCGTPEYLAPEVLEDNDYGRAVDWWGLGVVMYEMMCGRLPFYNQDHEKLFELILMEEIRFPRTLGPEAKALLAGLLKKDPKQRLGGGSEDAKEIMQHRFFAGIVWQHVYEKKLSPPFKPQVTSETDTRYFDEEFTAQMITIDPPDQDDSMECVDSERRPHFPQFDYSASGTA
Briefly: Akt Kinase Assay.
Details: not given
The procedure: The kinase assay uses His-Akt1 and a biotinylated peptide as substrate. The biotinylated peptides were immobilized on streptavidin-coated FLASH plates. After reaction, the 33P-phosphopeptide captured on the FLASH plates was measured with a TopCount Packard Instruments […] (Packard Instruments, Boston, MA).
For `Cn1cc(C[C@H](N)COc2cncc(/C=C/c3ccncc3)c2)c2ccccc21` [3-[(2S)-2-amino-3-({5-[(E)-2-(pyridin-4-yl)ethenyl]pyridin-3-yl}oxy)propyl]-1-methyl-1H-indole], the IC50 came to 500 nM.
Turning to `N[C@H](CNc1cncc(/C=C/c2ccncc2)c1)Cc1c[nH]c2ccccc12` [N-[(2S)-2-amino-3-(1H-indol-3-yl)propyl]-5-[(E)-2-(pyridin-4-yl)ethenyl]pyridin-3-amine], the half-maximal inhibitory concentration (IC50) was found to be 9.7 nM.
Molecule `CNc1cc(/C=C/c2cncc(OC[C@@H](N)Cc3c[nH]c4ccccc34)c2)ccn1` [4-[(E)-2-{5-[(2S)-2-amino-3-(1H-indol-3-yl)propoxy]pyridin-3-yl}ethenyl]-N-methylpyridin-2-amine] returned an IC50 of 176 nM.
On the same count and under the same terms, with `NCC(c1ccccc1)c1cncc(/C=C/c2ccncc2)c1` (configuration not stated) [2-phenyl-2-{5-[(E)-2-(pyridin-4-yl)ethenyl]pyridin-3-yl}ethan-1-amine] the figure was 284 nM; with `N[C@H](COc1cncc(/C=C/c2ccncc2)c1)Cc1csc2ccccc12` [3-[(2S)-2-amino-3-(1-benzothiophen-3-yl)propoxy]-5-[(E)-2-(pyridin-4-yl)ethenyl]pyridine], 142 nM; with `N[C@H](CNc1cnc(Cl)c(/C=C/c2ccncc2)c1)CC1CNc2ccccc21` (stereo partly drawn) [N-[(2S)-2-amino-3-(2,3-dihydro-1H-indol-3-yl)propyl]-6-chloro-5-[(E)-2-(pyridin-4-yl)ethenyl]pyridin-3-amine], 79 nM.
Still for that read-out and setting: with `COc1cc(/C=C/c2cncc(OC[C@@H](N)Cc3c[nH]c4ccccc34)c2)ccn1` [3-[(2S)-2-amino-3-({5-[(E)-2-(2-methoxypyridin-4-yl)ethenyl]pyridin-3-yl}oxy)propyl]-1H-indole] the figure was 2670 nM; with `N[C@H](COc1cncc(/C=C/c2ccnc(NCc3ccccc3)c2)c1)Cc1c[nH]c2ccccc12` [4-[(E)-2-{5-[(2S)-2-amino-3-(1H-indol-3-yl)propoxy]pyridin-3-yl}ethenyl]-N-benzylpyridin-2-amine], 147 nM; with `CCNc1cc(/C=C/c2cncc(OC[C@@H](N)Cc3c[nH]c4ccccc34)c2)ccn1` [4-[(E)-2-{5-[(2S)-2-amino-3-(1H-indol-3-yl)propoxy]pyridin-3-yl}ethenyl]-N-ethylpyridin-2-amine], 163 nM.
Molecule `N[C@H](COc1ccc(/C=C/c2ccncc2)cn1)Cc1ccccc1` [2-[(2S)-2-amino-3-phenylpropoxy]-5-[(E)-2-(pyridin-4-yl)ethenyl]pyridine] displayed a 50% inhibitory concentration (IC50) of 43000 nM.
The same measure, in the same setting: with `Nc1cc(/C=C/c2cncc(OC[C@@H](N)Cc3c[nH]c4ccccc34)c2)ccn1` [4-[(E)-2-{5-[(2S)-2-amino-3-(1H-indol-3-yl)propoxy]pyridin-3-yl}ethenyl]pyridin-2-amine] the figure was 121 nM; with `N[C@H](COc1cnc(Cl)c(/C=C/c2ccncc2)c1)Cc1c[nH]c2ccccc12` [3-[(2S)-2-amino-3-({6-chloro-5-[(E)-2-(pyridin-4-yl)ethenyl]pyridin-3-yl}oxy)propyl]-1H-indole], 23 nM; with `N[C@H](CCc1cnc(Cl)c(/C=C/c2ccncc2)c1)Cc1c[nH]c2ccccc12` [(2R)-4-{6-chloro-5-[(E)-2-(pyridin-4-yl)ethenyl]pyridin-3-yl}-1-(1H-indol-3-yl)butan-2-amine], 198 nM.
Same read-out and setting: the same measure for `N[C@H](COc1cncc(/C=C/c2ccnc(Oc3ccccc3)c2)c1)Cc1c[nH]c2ccccc12` [3-[(2S)-2-amino-3-({5-[(E)-2-(2-phenoxypyridin-4-yl)ethenyl]pyridin-3-yl}oxy)propyl]-1H-indole]: 6450 nM.
The same measure, in the same setting: the same measure for `N[C@H](COc1cncc(/C=C/c2ccnc(-n3ccc4ccccc43)c2)c1)Cc1c[nH]c2ccccc12` [1-{4-[(E)-2-{5-[(2S)-2-amino-3-(1H-indol-3-yl)propoxy]pyridin-3-yl}ethenyl]pyridin-2-yl}-1H-indole]: 3340 nM.
For the molecule `CN(C)[C@H](COc1cncc(/C=C/c2ccncc2)c1)Cc1c[nH]c2ccccc12` [[(2S)-1-(1H-indol-3-yl)-3-({5-[(E)-2-(pyridin-4-yl)ethenyl]pyridin-3-yl}oxy)propan-2-yl]dimethylamine], 1100 nM corresponded to half-maximal inhibition (IC50).
Same read-out and setting: the same measure for `Brc1ccc(/C=C/CNCCOc2cncc(/C=C/c3ccncc3)c2)cc1` [[(2E)-3-(4-bromophenyl)prop-2-en-1-yl][2-({5-[(E)-2-(pyridin-4-yl)ethenyl]pyridin-3-yl}oxy)ethyl]amine]: 32200 nM; for `N[C@H](COc1cncc(/C=C/c2ccnc(NC3CC3)c2)c1)Cc1c[nH]c2ccccc12` [4-[(E)-2-{5-[(2S)-2-amino-3-(1H-indol-3-yl)propoxy]pyridin-3-yl}ethenyl]-N-cyclopropylpyridin-2-amine]: 69 nM; for `N[C@H](CNc1cnc(Cl)c(/C=C/c2ccncc2)c1)Cc1c[nH]c2ccccc12` [N-[(2S)-2-amino-3-(1H-indol-3-yl)propyl]-6-chloro-5-[(E)-2-(pyridin-4-yl)ethenyl]pyridin-3-amine]: 19 nM.
`N[C@@H](Cc1ccccc1)C(=O)Nc1cncc(/C=C/c2ccncc2)c1` [(2S)-2-amino-3-phenyl-N-{5-[(E)-2-(pyridin-4-yl)ethenyl]pyridin-3-yl}propanamide] gave a half-inhibitory concentration (IC50) of 3200 nM.
Same read-out and setting: with `N[C@H](COc1cncc(/C=C/c2ccnc(SCc3ccccc3)c2)c1)Cc1c[nH]c2ccccc12` [3-[(2S)-2-amino-3-({5-[(E)-2-[2-(benzylsulfanyl)pyridin-4-yl]ethenyl]pyridin-3-yl}oxy)propyl]-1H-indole] the figure was 3110 nM; with `N[C@H](COc1cncc(/C=C/c2ccnc(Sc3ccccc3)c2)c1)Cc1c[nH]c2ccccc12` [3-[(2S)-2-amino-3-({5-[(E)-2-[2-(phenylsulfanyl)pyridin-4-yl]ethenyl]pyridin-3-yl}oxy)propyl]-1H-indole], 6350 nM.
The same measure, in the same setting: the same measure for `N[C@H](COc1cccc(/C=C/c2ccncc2)n1)Cc1c[nH]c2ccccc12` [3-[(2S)-2-amino-3-({6-[(E)-2-(pyridin-4-yl)ethenyl]pyridin-2-yl}oxy)propyl]-1H-indole]: 23300 nM.

The test is the same for the next values; noted with them: pH 7.5; 22 °C.
With `N[C@H](COc1cncc(/C=C/c2ccncc2)c1)Cc1ccc2ccccc2c1` [3-[(2S)-2-amino-3-(naphthalen-2-yl)propoxy]-5-[(E)-2-(pyridin-4-yl)ethenyl]pyridine], the IC50 is 146 nM.
Still for that read-out and setting: with `CC(C)[C@H](N)COc1cncc(/C=C/c2ccncc2)c1` [3-[(2S)-2-amino-3-methylbutoxy]-5-[(E)-2-(pyridin-4-yl)ethenyl]pyridine] the figure was 19300 nM.
On the same count and under the same terms, with `N[C@H](COc1cncc(/C=C/c2ccncc2)c1)Cc1cccc2ccccc12` [3-[(2S)-2-amino-3-(naphthalen-1-yl)propoxy]-5-[(E)-2-(pyridin-4-yl)ethenyl]pyridine] the figure was 324 nM.
Still for that read-out and setting: the same measure for `N[C@H](COc1cncc(/C=C/c2ccncc2)c1)C(c1ccccc1)c1ccccc1` [3-[(2S)-2-amino-3,3-diphenylpropoxy]-5-[(E)-2-(pyridin-4-yl)ethenyl]pyridine]: 6760 nM; for `N[C@H](COc1cncc(/C=C/c2ccncc2)c1)Cc1cccc(O)c1` [3-[(2S)-2-amino-3-({5-[(E)-2-(pyridin-4-yl)ethenyl]pyridin-3-yl}oxy)propyl]phenol]: 875 nM; for `C(=C\c1cncc(OC[C@@H]2CCN2)c1)/c1ccncc1` [3-[(2S)-azetidin-2-ylmethoxy]-5-[(E)-2-(pyridin-4-yl)ethenyl]pyridine]: 10900 nM.
Regarding `C(=C\c1cncc(OC[C@@H]2CCCN2)c1)/c1ccncc1` [3-[(E)-2-(pyridin-4-yl)ethenyl]-5-[(2S)-pyrrolidin-2-ylmethoxy]pyridine], the IC50 was found to be 23900 nM.
Take `N#Cc1cccc(C[C@H](N)COc2cncc(/C=C/c3ccncc3)c2)c1` [3-[(2S)-2-amino-3-({5-[(E)-2-(pyridin-4-yl)ethenyl]pyridin-3-yl}oxy)propyl]benzonitrile]: inhibition was half-maximal at 320 nM (IC50).
Still for that read-out and setting: the same measure for `N[C@@H](CCc1ccccc1)COc1cncc(/C=C/c2ccncc2)c1` [3-[(2S)-2-amino-4-phenylbutoxy]-5-[(E)-2-(pyridin-4-yl)ethenyl]pyridine]: 8020 nM.

The values above are taken from BindingDB's records for doi:10.1016/j.bmcl.2005.12.017 (Abbott Laboratories, 2006).
